The nature of assay [1]: Heparin affinity column, NaCl concentration required for elution. The format is binding. Particulars: 50 mM sodium phosphate pH 7.5, gradient 0 to 2 M NaCl over 20 column volumes. As for the experimental part: For purposes of the present invention, conditions for determining the affinity of the PB polypeptides (and/or the therapeutic agent) for heparin are as follows: The polypeptide is solubilized in 50 mM sodium phosphate buffer, pH 7.5 to a final concentration of 0.5 mg/ml. 1 mg of the polypeptide is loaded onto an Amersham Biosciences HiPrep 16/10 Heparin FF column (or suitable equivalent) at a flow rate of 5 ml/min at 25° C. After loading the polypeptide, a salt gradient is introduced to the column by increasing the sodium chloride content of the buffer from 0 to 2 M NaCl over 20 column volumes. The recorded NaCl concentration required for elution is determined by correlating the maximum absorbance value at 280 and/or 215 nm for each spectrum to the value of the gradient at that time point.
FIG. 4 is a chart depicting the relative heparin affinity of various heparin-binding peptides. Each peptide was solubilized in 50 mM sodium phosphate buffer, pH 7.5 to a final concentration of 0.5 mg/ml. Then, 1 mg of each peptide was loaded onto an Amersham Biosciences HiPrep 16/10 Heparin FF column at a flow rate of 5 ml/min. After loading the peptide, a salt gradient was introduced to the column by increasing the sodium chloride content of the buffer from 0 to 2 M NaCl over 20 column volumes. The recorded NaCl concentration required for elution was determined by correlating the maximum absorbance value at 280 and/or 215 nm for each spectrum to the value of the gradient at that time point.

Assay [2] is described as follows: Relative affinity to heparin of synthesized peptides (Table 2). It counts as binding. Particulars: corresponds to the bold-faced amino acids of the sequence.
The conditions of assay [3]: cited from earlier work.
A short description of assay [4]: Dissociation constant (KD) of peptides from heparin, literature values. It counts as binding. Particulars: PBD3 versus PBD2.
[5] abbreviates: references [1], [2], read-out: Affinity to Heparin (KD).

Read-outs that look alike come from different tables or passages of the source. Where no end group is shown, it is not given here. [ ]: non-standard residue; d: D form. The star is where a group is joined. FITC = O=C1OC2(c3ccc(O)cc3Oc3cc(O)ccc32)c2ccc(NC(=S)*)cc21; Dansyl = CN(C)c1cccc2c(S(=O)(=O)*)cccc12; βAla = NCCC(=O)O

Take AKLNCRLYRKANKSSKL [PBD8]: the “NaCl Elution Conc.” value in assay [1] is given as 481.2 mM. Turning to KAFAKLAARLYRKAGC [HBD-high], the “Relative Affinity to Heparin” value in assay [2] was 100%. As for AAFAKLAARLYRKAGC [HBD-low], the “Relative Affinity to Heparin” value in assay [2] was determined as 14.3%. Regarding “dansyl-GKAFAKLAARLYRKAGC (Dansyl-GKAFAKLAARLYRKAGC) [PBD1]”, the “NaCl Elution Conc.” value in assay [1] was determined as 685.9 mM.

Turning to Dansyl-GYGRKKRRQRRR [Dansyl-TAT], in assay [1], the “NaCl Elution Conc.” value was found to be 727.6 mM. As for “FITC-A(β)AAFAKLAARLYRKAGC ({FITC}-[βAla]AAFAKLAARLYRKAGC) [PBD2]”, the dissociation constant (Kd) (as a rule, the constant that tells how readily two partners part at equilibrium) in assay [3] (setting [5]) is 370 nM. The “NaCl Elution Conc.” value in assay [1] came to 354.8 mM.

As to “WKA(β)FAKLNCRLYRKA (WK[βAla]FAKLNCRLYRKA) [PBD7]”, the “NaCl Elution Conc.” value in assay [1] came out at 422.6 mM. For the substance “FITC-A(β)KAFAALAARLYRKAGC ({FITC}-[βAla]KAFAALAARLYRKAGC) [PBD3, PBD3 control is the same peptide tested without heparin]”, the “dissociation constant relative to that of PBD2” value in assay [4] is 1.8 times. For the same substance, the Kd in assay [3] (setting [5]) was 660 nM. The “NaCl Elution Conc.” value in assay [1] turned out to be 313.0 mM.

In the case of “FITC-A(β)YGRKKRRQRRR (AYGRKKRRQRRR; N-terminal FITC-beta-alanine) [FITC-TAT]”, the “NaCl Elution Conc.” value in assay [1] is on record as 703.6 mM. The same measure, in the same setting: to “FITC-A(β)KAFAKLAARLYRKAGC ({FITC}-[βAla]KAFAKLAARLYRKAGC) [FITC-PBD1]” belongs 438.8 mM; to KAFAKLAARLYRKAGC [PBD1-A], 325.0 mM.

Regarding “FITC-A(β)GGGGYGRKKRRQRRR ({FITC}-[βAla]GGGGYGRKKRRQRRR) [TAT, reference compound]”, in assay [2], the “Relative Affinity to Heparin” value stood at 170%. Moreover, the Kd in assay [3] (low molecular weight heparin and heparin to which only one molecule of TAT is bound (Rusnati, 1999), read-out: KD, dissociation constant for TAT from heparin) is around 700 nM; in assay [3] (setting [5]), 30 nM.
